In brackets after ≈: the same amount, converted by molar mass. Read-outs that look alike come from different tables or passages of the source.

The values below come from US20110301159A1, “KINASE INHIBITOR COMPOUNDS” (UNIVERSITY OF SOUTH FLORIDA, priority 2008, published 2011).

Data set [1] has as its system Jak2-V617F expressing Human Erythroleukemia (HEL) cells. Briefly: Inhibition of Jak2-V617F dependent HEL cell growth (trypan blue viable cell count). Type of data set: cell-based. The note with it: for inhibition at 25 µM: Homo sapiens, HEL; for inhibition at 25 µM / % Growth Inhibition: 25 uM inhibitor. How it is done: (§1) Methods: Jak2-V617F expressing Human Erythroleukemia (HEL) cells were plated in 96 well plates at ˜40,000 cells per well and incubated with either vehicle control (0.25% DMSO) or with 25 uM of Jak2 kinase inhibitors. Viable cell numbers were then determined at the times (0, 4, 24, 48 and 72 hours) via trypan blue exclusion and a hemocytometer. Aqueous solubility was determined using a MultiScreen® Solubility Filter Plate (Millipore) (see Quantitative method to determine drug aqueous solubility: optimization and correlation to standard methods; http://www.millipore.com/techpublications/tech1/an1730en00) and a Spectrophotometer.

Data set [2] is described as follows: Aqueous solubility (MultiScreen Solubility Filter Plate). Type of data set: physicochemical. The note with it: MultiScreen Solubility Filter Plate (Millipore), kinetic from dmso stock. How it is done: as §1
The test system of data set [3] is Jak2-V617F expressing Human Erythroleukemia (HEL) cells. The data set can be described thus: Inhibition of Jak2-V617F dependent HEL cell growth (trypan blue viable cell count). Type of data set: cell-based. The note with it: for IC50: read-out: IC50 for inhibition on Jak2-V617F dependent HEL cells proliferation.
The test system of data set [4] is Marrow derived mononuclear cells (polycythemia vera, Jak2-V617F positive). The data set can be described thus: Ex vivo colony formation of marrow cells from a polycythemia vera patient. Type of data set: cell-based, human. As to conditions: 25 or 2.5 μM. Here is the method:
Methods: Marrow derived mononuclear cells were obtained from a person, who has been confirmed to have polycythemia vera and also identified as Jak2-V617F positive. Marrow derived mononuclear cells were washed three times in IMDM media and plated at 4×10^5 cells/mL in 1 mL methylcellulose media (0.9% methylcellulose, 30% heat inactivated FCS, 0.1 mM 2-mercaptoethanol, 0.9% BSA, 0.05% NaHCO3, 2 mM/L glutamine, penicillin, streptomycin, 50 ng/mL SCF, and 20 ng/mL IL-3 (Stem Cell Technologies, Vancouver, BC). Vehicle control (DMSO at 0.25%) or inhibitors were added at the indicated concentrations (25 or 2.5 μM). EPO (1 U/mL) was also added as indicated. The cultures were then incubated at 37° C. and 5% CO2 until assessment of colony formation at day 14. Results were expressed as the average number of colonies from duplicate cultures per 4×10^5 cells.

The test system of data set [5] is Jak2-V617F expressing HEL cells. Briefly: Apoptosis assay (Annexin V/Propidium Iodide FACS). Type of data set: cell-based, Human. As to conditions: 25 μM, 48 hours. How it is done: Jak2-V617F expressing HEL cells were exposed to either vehicle control (DMSO), or 25 μM of an inhibitor for 48 hours. The percentage of apoptotic cells was then determined via Annexin V/Propidim Iodide FACS analysis.

Data set [6] has as its system Marrow derived mononuclear cells (Essential Thrombocythemia, Jak2-V617F positive). Briefly: Ex vivo Jak2-V617F dependent megakaryocyte colony formation (essential thrombocythemia patient). It is filed as cell-based, human. As to conditions: 25 uM, day 14. The source says:
Marrow derived mononuclear cells were taken from a person, who was confirmed Essential Thrombocythemia and being Jak2-V617F positive.

For data set [7], the target named is T1, recombinant p60c-src (Homo sapiens, UniProt P12931).
T1 construct: purchased Upstate Biotechnology
Briefly: c-Src assay (in vitro kinase reaction, anti-Src pY418 Western blot). It is filed as biochemical. As to conditions: 25 uM, 20 minutes, room temperature. How it is done:
Approximately 4 μL (12 units) of catalytically active recombinant p60c-src (Upstate Biotechnology) was incubated in 46 μL of in vitro kinase reaction buffer (50 mM HEPES, pH 7.6, 5 mM MnCl2, 5 mM MgCl2, 100 mM NaCl, 0.5 mM DTT), either in the presence of DMSO or 25 uM Z3. The reactions were incubated for 20 minutes at room temperature and then
terminated by addition of SDS-containing buffer. The samples were Western blotted with an anti-Src (pY418) polyclonal antibody (Biosource).
A general note: A western blot detects proteins with antibodies after separation by electrophoresis.

Data set [8] has as its system HEL cells. The data set can be described thus: Jak2-V617F-induced hematopoietic disease in NOD-SCID mouse model (HEL cell injection). Type of data set: in vivo, NOD-SCID mice. How it is done: Methods: In the experiment, NOD-SCID mice, N=36. were randomized into 6 groups (n=6). Baseline peripheral blood samples and weights were taken at Day 0. At day 7, 2×10^6 HEL cells were injected into each mouse in Groups 2, 3, 4 and 5. […] Then all the mice were euthanized.
In the experiment, the following measurable endpoints were assessed. For peripheral blood, total white blood cell (WBC) counts, the percentage of blast cells, the percentage of nucleated red blood cells (RBC), and Hematocrits were measured. For bone marrow, quantitative cellularity, and Myeloid cell to erythroid cell (M:E) ratio were assessed. Further, toxicity in spleen, brain, kidney, liver, and lung using histological analysis is assessed.
Peripheral blood samples were obtained via weekly submandibular bleeds using a 21 gauge needle. Blood samples were smeared onto glass slides, stained, and dried. Peripheral blast cells on each slide were then tabulated using a pathology light microscope. The average percent of peripheral blast cells for each treatment group was then graphed as a function of time.
At necropsy, femurs from each animal were formalin fixed, de-calcified and then parrafin embedded. Parrafin sections were then made, stained with hematoxylin and eosin and dried. The number of myeloid and erythroid cells were then tabulated by a veterinary pathologist who was blind to the treatment groups. The ratio of myeloid to erythroid cells was then graphed as a function of treatment group. Further, the average number of mature and immature erythroid cells was then graphed as a function of treatment group.
Additionally, at necropsy, animals were weighed one final time and spleens were then removed from each mouse. The wet weight of each spleen was recorded and the spleen weight to body weight ratio was graphed as a function of treatment group.

For orientation: inhibition means the change of the read-out against control, counted positive when it falls. As a reminder, the solubility is how much of the substance goes into solution per volume. A low value points to little dissolved substance. For `CCN(CC)Cc1cc(/C=C/c2ccc(O)c(CN(CC)CC)c2)ccc1O` [NB-1, (Z)- and (E)-4,4′-(Ethene-1,2-diyl)bis(2-((diethylamino)methyl)phenol)], in data set [1], the inhibition at 25 µM was found to be 98%. The concentration in solution in data set [2] (solubility) was 533 µM (≈ 204 µg/mL). In data set [3] (Homo sapiens, HEL), the IC50 is approximately 4 µM. Further, the “pathologic cell growth (colony formation at day 14)” value (“pathologic cell growth” for short) in data set [4] is on record as “reduce pathologic cell growth”. For the same compound, in data set [5], the “% of Cells in Apoptosis” value came out at 66% and the “suppressing HEL cell growth compared with G6” value is “behaves similarly to G6”.

For `CCN(CC)Cc1ccc(/C(C)=C(/C)c2ccc(CN(CC)CC)c(O)c2)cc1O` [NB-3, (Z)- and (E)-5,5′-(But-2-ene-2,3-diyl)bis(2-((diethylamino)methyl)phenol)], the inhibition at 25 µM in data set [1] was 101%. The solubility in data set [2] was 460 µM (≈ 189 µg/mL).

For the compound `C/C(=C(/C)c1ccc(CN(C)C)c(O)c1)c1ccc(CN(C)C)c(O)c1` [NB-4, (Z)- and (E)-5,5′-(But-2-ene-2,3-diyl)bis(2-((dimethylamino)methyl)phenol)], the inhibition at 25 µM in data set [1] is 101%. Further, the concentration in solution in data set [2] (solubility) came to 478 µM (≈ 169 µg/mL).

As to `CCN(CC)Cc1ccc(/C=C\c2ccc(CN(CC)CC)c(O)c2)cc1O` [NB-5, (Z)- and (E)-5,5′-(Ethene-1,2-diyl)bis(2-((diethylamino)methyl)phenol)], the inhibition at 25 µM in data set [1] was determined as 101%. Besides, in data set [2], the solubility worked out at 509 µM (≈ 195 µg/mL).

Take `CN(C)Cc1ccc(/C=C\c2ccc(CN(C)C)c(O)c2)cc1O` [NB-6, (Z)- and (E)-5,5′-(Ethene-1,2-diyl)bis(2-((dimethylamino)methyl)phenol)]: the inhibition at 25 µM in data set [1] was approximately 19%. In data set [2], this compound registered a solubility of 538 µM (≈ 176 µg/mL).

As for `Oc1cc(/C=C\c2ccc(CN3CCCCC3)c(O)c2)ccc1CN1CCCCC1` [NB-7, (Z)- and (E)-5,5′-(Ethene-1,2-diyl)bis(2-(piperidin-1-ylmethyl)phenol)], in data set [1], the inhibition at 25 µM is 99%. For the same compound, in data set [2], the concentration in solution (solubility) came to 495 µM (≈ 201 µg/mL).

As to `CCN(CC)Cc1ccc(/C(C)=C(\C)c2ccc(CN(CC)CC)c(O)c2)cc1O` [NB-8, (Z)- and (E)-5,5′-(But-2-ene-2,3-diyl)bis(2-((diethylamino)methyl)phenol).2HCl], the inhibition at 25 µM in data set [1] came to 100%. The same compound showed a solubility in data set [2] of 272 µM.

In the case of `C/C(=C(\C)c1ccc(CN(C)C)c(O)c1)c1ccc(CN(C)C)c(O)c1` [NB-9, (Z)- and (E)-5,5′-(But-2-ene-2,3-diyl)bis(2-((dimethylamino)methyl)phenol).2HCl], the inhibition at 25 µM in data set [1] stood at 101%. The compound also displayed a solubility in data set [2] of 384 µM.

Regarding `CCN(CC)Cc1ccc(/C=C/c2ccc(CN(CC)CC)c(O)c2)cc1O` [NB-10, (Z)- and (E)-5,5′-(Ethene-1,2-diyl)bis(2-((diethylamino)methyl)phenol).2HCl], the inhibition at 25 µM in data set [1] was 100%. In addition, the solubility in data set [2] was determined as 474 µM.

With `Oc1cc(/C=C/c2ccc(CN3CCCCC3)c(O)c2)ccc1CN1CCCCC1` [NB-12, (Z)- and (E)-5,5′-(Ethene-1,2-diyl)bis(2-(piperidin-1-ylmethyl)phenol)], in data set [1], the inhibition at 25 µM amounted to 100%. The compound further gave a solubility in data set [2] of 484 µM (≈ 197 µg/mL).

In the case of “(Z) and (E)-4,4′-(Hex-3-ene-3,4-diyl)bis(2-((diethylamino)methyl)phenol) [Compound G6]”, in data set [1], the “time required to inhibit Jak2-V617F dependent cell proliferation by 50%” value is approximately 11 h and the “% Growth Inhibition” value is listed as 100%. Also, in data set [3] (HEL cells), the “Jak2-V617F dependent HEL cell proliferation, dose and time dependence” value was “Inhibits Jak2-V617F Dependent HEL Cell Proliferation in both a dose and time dependent manner”; the IC50 is approximately 4 µM. In data set [6], the “Jak2-V617F dependent megakaryocyte colony formation” value is “blocks Jak2-V617F dependent megakaryocyte colony formation”. For the same compound, in data set [4], the “pathologic cell growth” value is listed as “reduce pathologic cell growth”. The “c-Src tyrosine kinase activity” value in data set [7] is listed as “no effect on c-Src tyrosine kinase activity”. Further, in data set [8] (10 mg/kg/day), the “Peripheral blood counts of granulocytes, neutrophils, and eosinophils” value is listed as “all normal”; the bone marrow necrosis is 2 of 6; the “histology of brain, kidney, liver, and lung” value is “histologically normal”; the splenic necrosis is on record as 3 of 6. Moreover, in data set [8] (0.1-10 mg/kg/day), the “percentage of blast cells in peripheral blood” value is reported as “reduces the percentage of blast cells in peripheral blood in a dose-dependent manner”. In addition, in data set [8] (mouse, in vivo), the “numbers of mature and immature Erythroid cells in bone marrow” value is on record as “reduced numbers of mature Erythroid cells, not immature Erythroid cells”. The “% of Cells in Apoptosis” value in data set [5] is given as 79%.

Turning to “(Z)- and (E)-4,4′-(But-2-ene-2,3-diyl)bis(2-((diethylamino)methyl)phenol) [NB-2]”, in data set [1] (25 µM), the “% Growth Inhibition” value was found to be 53%. The IC50 in data set [3] (HEL cells) is approximately 9 µM. Also, the “pathologic cell growth” value in data set [4] was “reduce pathologic cell growth”. Also, in data set [5], the “% of Cells in Apoptosis” value is given as 28% and the “suppressing HEL cell growth compared with G6” value is “not as effective as G6”.
